The values below are quoted from earlier work in patent publication US7756644B2, “System and method for automated selection of T-cell epitopes” (priority 2005, dated 2010).

This data set deals with memory T-cells isolated from HLA-B7-positive EBV-seropositive individuals. The note with it: PNAS 1999.

With “QPRAPIRPI (EBNA 3C.881 peptide from Epstein-Barr virus)”, the “recognition by memory T-cells / immunogenicity” value was “is not”.

Take RPPIFIRRL [EBNA 3A.379]: the “recognition by memory T-cells / immunogenicity” value is “recognized”.
